In patent US20180256541A1, “COMPOSITIONS HAVING ANTI-FUGETACTIC PROPERTIES FOR TREATMENT OF CANCER” (THE GENERAL HOSPITAL CORPORATION DBA MASSACHUSETTS GENERAL …, priority 2015, published 2018):

Tests used:
human CD3+ T cells [1] = conditions: T cells pre-incubated with 0.01 μM to 10 mM AMD3100; tumor cells in Transwell; harvest after 3 h
Protocol: For quantitative transmigration assays, purified human CD3^+ T cells (approximately 2×10^4 cells) are added to the upper chamber of a Transwell® insert in each well, to a total volume of 150 μl of Iscove's modified medium.
To determine the anti-fugetactic concentration of AMD3100, the T cells are incubated with 0.01 μM to 10 mM AMD3100 prior to addition to the chamber.
Cells are harvested from the lower chamber after 3 h, and cell counts are performed using a hemocytometer.

human CD3+ T cells [2] = conditions: CI of 1.0 is the control, triplicate wells
Protocol: Freshly prepared and purified human CD3^+ T cells were prepared from healthy donor peripheral blood. 20,000 T cells were loaded into the upper chamber of the Transwell in control, chemotactic or fugetactic settings with AMD3100 at concentrations between 0.1 μM and 10 μM. Migrated cells were counted in the lower chamber and migration quantitated as previously described. Vianello et al. The Journal of Immunology, 2006, 176: 2902-2914; Righi et al., Cancer Res.; 71(16); 5522-34, each of which is incorporated herein in its entirety.
We saw clear evidence of binary or bimodal chemotactic (FIG. 1; CI 2.3 at 1 μM) and fugetactic (FIG. 2; CI=1.6 at 0.1 μM) responses of human CD3+ T cells to AMD3100 (where a CI or chemotactic index of 1.0 is the control). All wells were run in triplicate.

c1cc(CN2CCCNCCNCCCNCC2)ccc1CN1CCCNCCNCCCNCC1 [AMD3100, 1,1′-[1,4-phenylenebis(methylene)]bis [1,4,8,11-tetraazacyclotetradecane]]
effect on T cell migration (anti-fugetactic at lower, fugetactic at higher concentrations) (human CD3+ T cells [1]): bimodal effect | CI (chemotactic index), chemotactic response (human CD3+ T cells [2]; chemotactic setting, AMD3100 at 1 μM, FIG. 1): 2.3 | CI (chemotactic index), fugetactic response (human CD3+ T cells [2]; fugetactic setting, AMD3100 at 0.1 μM, FIG. 2): 1.6
